Assay results from patent publication US7704723B2, “Isolation and characterization of novel clostridial species” (The Board of Regents For Oklahoma State University, priority 2006, dated 2010).
Values after ≈ are worked out from the molar mass of the structure shown. Where a name gives a salt, the structure may show the parent alone.

Tests used:
[1] = system: strain P11; experiment: microbe, parasite or virus in culture
Description: (§1) Bacterial Strain and Cultivation Media. Clostridial strain P11 was used throughout the study. Carbon monoxide medium (COM) was used to cultivate and maintain the culture. The growth temperature was 37° C. COM is an undefined buffered medium initially pressurized to 10 psi (70 kPa) with N2/CO2 and then autoclaved for 15 minutes at 121° C. The medium contained per liter of distilled water: 25 ml mineral solution (Table 1), 10 ml trace metals solution (Table 2, 10 ml vitamin solution (Table 3), 1.0 g of yeast extract, 10 g of MES (2-[N-morpholino]ethanesulfonic acid), 0.001 g resazurin, 4.0 g cysteine.HCl, and 4.0 Na2S.9H2O; the initial pH of this medium was 6.1-6.3. The medium was prepared using strict anaerobic technique (Balch & Wolfe, 1976). Carbon monoxide was the sole substrate provided at 210 kPa (30 psi). Unless otherwise noted all growth experiments were conducted under a pressure of 30 psi with CO as the sole or primary substrate and were incubated horizontally to maximize gas diffusion into the medium. Standard inoculum size was about 2% (v/v) transferred from a stock culture that was growing in mid to late exponential phase, unless otherwise noted.
(§2) Analytical methods. Growth was measured spectrophotometrically at 600 nm (Spectronic 20D; Milton Roy) in aluminum seal tubes (Balch & Wolfe, 1976). Acetate and ethanol were measured simultaneously by a gas chromatograph (GC) equipped with a flame ionization detector (FID) on a Varian 3400 equipped with a 2 m steel column packed with an 80/120 Carbopak B-DA/4% carbowax resin 20M (Supelco, Bellfonte, Pa.). The column, injector, and detector temperature were 155, 200, and 200° C. respectively. Helium was the carrier gas and the flow rate was set at 30 ml min^−1. Hydrogen ion concentration was measured by electrode.
Ethanol tolerance. The effect of ethanol on CO metabolism and solvent production was investigated with strain P11. The initial maximum concentration at which strain P11 could survive was determined during the course of these studies. […] Liquid samples (1.0 mL) were extracted once the cells remained at stationary phase and stored frozen (−20° C.) until analyzed by GC and HPLC. After the maximum ethanol concentration for cell survival was determined semi-continuous batch culture experiments were conducted using 500 mL serum bottles containing between 100-200 mL of COM containing different concentrations of ethanol (20, 30, 40, and 50 g/L) to adapt strain P11 to high solvent conditions. The amended COM with ethanol was prepared by adding filter sterilized ethanol to pre-sterilized Balch tubes, and then purging with N/CO2 to remove oxygen. After the media was sterilized, the ethanol was then added to the appropriate concentrations. These bottles were inoculated with the P11 cells from the semi-continuous batch cultures that were already established above. Growth and pH were measured periodically. A portion of the medium extracted for those measurements was taken for analyses of ethanol and acetate concentrations.

[2] = system: Clostridium ragsdalei strain P11; experiment: Growth of strain P11 on organic and gaseous substrates as sole carbon and energy sources; assay type: cell-based; settings: for Substrate utilization, C. ragsdalei: strain P11, growth on substrate as sole carbon and energy source, final OD600
Description: (§3) Except for the deletion of NaHCO3 and an initial pH 6.3, growth on organic and gaseous substrates was performed as previously described (Tanner et. al., 1993). Resazurin (1 mg/L) was used as the redox indicator. Purified agar was added to the medium at a concentration of 2% for colony morphology description (Table 5). Heat labile substrates were filter sterilized (not autoclaved) and added from sterile stock solutions to a final concentration of 5 g/L before inoculation. The optimum temperature and pH (initial pH) was determined in medium containing fructose as the substrate. For determination of the optimum pH, media was buffered with HOMOPIPES (homopiperazine-N,N′-bis-2-[ethanesulfonic acid] (Research Organics, Cleveland, Ohio), MES (2-[N-morpholino]ethanesulfonic acid), or TES (N-tris [hydroxymethyl]methyl-2-aminoethanesulfonic acid) at (1.0 g/L). A 0.1 ml (˜2%) inoculum of fructose-grown cells was used to initiate growth. All media components used in these experiments were obtained from Sigma unless otherwise noted (Sigma Chemical Co., St. Louis, Mo.).
(§4) Analytical methods. […] For the substrate malate, utilization was analyzed by HPLC (“high-performance liquid chromatography”) equipped with a UV detector set at 214 nm using a Alltech, Prevail Organic Acid column (4.6×150 mm, 5 μm; Alltech, Deerfield, Mich.) with a mobile phase of 25 mM KH2PO4, pH 2.5 and 10% (v/v) methanol.

[3] = system: strain P11; experiment: Trace metals elimination (0x) and addition (10x) in CO medium; assay type: cell-based, Clostridium ragsdalei; settings: for CO metabolism on elimination of the metal / Increase in solvent to acid ratio on elimination of the metal / Acetate production on elimination of the metal: 0x metal in COM; for CO metabolism at increased level of the metal: 10x metal in COM, especially after a 48 hour feeding
Description: Bacterial Strain and Cultivation Media. Clostridial strain P11 was used throughout the study. […] The growth temperature was 37° C. […] Analytical methods. […] Milton Roy) in aluminum seal tubes (Balch & Wolfe, 1976). […] Hydrogen ion concentration was measured by electrode. Trace metals. […] Triplicate tubes of unamended (1×) and amended (0× and 10×) media were inoculated with strain P11 where each of these individual trace metals were added to or eliminated from the COM at 10× and 0× the original metal concentration. The cultures were fed every 48 hours with CO. This was also completed in duplicate in 160 mL serum bottles to simulate small scale batch conditions. Stock solutions were prepared for each of the above metals and added during the media preparation before boiling and degassing. […] In order to adapt cells to the higher concentrations of metals, at least 2 transfers were made for each set-up. This experiment was performed in triplicate and growth was measured over 7 days after which pH and ethanol concentration analyses were completed.

[4] = system: strain P11; experiment: Metabolic inhibitor studies (FA/TFA) in CO medium; assay type: cell-based, Clostridium ragsdalei; settings: for Ethanol production compared to the control strains: P11 in the presence of the inhibitor, identical conditions
Description: as §1, §2
Metabolic Inhibitor Studies. Filter sterilized anaerobic stock solutions of fluoroacetate (FA) and trifluoroacetate (TFA) (Sigma Chemical Co.) were prepared to final concentrations of 4.5M. Before preparation, the FA and TFA powders were allowed to sit overnight in small beakers in the anaerobic chamber to allow any trapped oxygen to diffuse from the powder. […] The inhibitors were usually added to the medium one day prior to inoculating with P11 to ensure anaerobicity was maintained. All additions were made anaerobically by syringe. During this study growth was measured periodically by spectroscopy. Toward the end of resting cell phase, liquid samples (1 mL) were taken and stored frozen (−20° C.) until analyzed by GC and HPLC.

[5] = system: thermophilic clostridium; settings: cited from earlier work
[6] = system: Clostridium ljungdahlii strain PETC; experiment: Growth of reference strain PETC on substrates as sole carbon and energy sources; assay type: cell-based; settings: strain PETC; growth on substrate as sole carbon and energy source; final OD600
Excerpt: Organisms. Clostridium ljundahlii strain PETC was obtained from a fructose stock culture maintained by Dr. Ralph S. Tanner and was used as the reference control strain. Strain P11 was obtained from an anaerobic enrichment inoculated with fresh water sediment from the Duck Pond at the University of Oklahoma by a procedure described previously (Bryant, 1972) under an atmosphere of CO:N2:CO2 (75:15:10) and an initial pH of 6.0. The carbon monoxide oxidizing clostridium described within was named Clostridium ragsdalei. This bacterium was designated strain P11 and deposited with the American Type Culture Collection as strain ATCC BAA-622.
as §3, §4

[7] = iron increased tenfold compared to standard medium

CCO [Ethanol]
MIC ([1]; Clostridium ragsdalei, P11, read-out: Minimum inhibitory concentration): 35 mg/mL (≈ 760 mM) | Growth at the 50 g/L ethanol concentration ([1]; adapted semi-continuous batch culture): ≤ 0.55 OD units | Growth relative to the unamended control without ethanol ([1]; all ethanol concentrations, 15-35 g/L): Growth was retarded | Ethanol concentration at which the adapted culture functions fully ([1]; culture adapted to ethanol): 50 grams per liter | Highest ethanol concentration at which the adapted culture was established ([1]; semi-continuous batch culture, stepwise adaptation from 20 g/L): 50 g/L | Ethanol concentration in which P11 remains viable and will grow ([1]; statement in the description): at least 60 g/L | Ethanol concentration initially tolerated ([1]; strain P11, not adapted): up to 30 g/L | Ethanol concentration that inhibited strain P11 ([1]; upon initial isolation): 30 grams per liter | Growth with substrate ([2]; Clostridium ragsdalei, malate and formate examined at pH 5.0-6.5): chemoorganotrophic growth was observed

[Ni] [Ni, nickel]
CO metabolism on elimination of the metal [3]: limited CO metabolism | Increase in solvent to acid ratio on elimination of the metal [3]: ~400% | CO metabolism at increased level of the metal [3]: stimulated CO metabolism

O=C(O)C(F)(F)F [TFA, trifluoroacetate]
Growth yield ([4]; COM containing 30 mM TFA): remained unchanged | Increase in acetate produced ([4]; COM containing 30 mM TFA): 52% | Increase in ethanol produced ([4]; COM containing 30 mM TFA): 126% | Increase of solvent to acid ratio ([4]; COM containing 30 mM TFA): 50% | Ethanol production compared to the control strains [4]: increase of ethanol production | Acetate ([4]; P11 with 60 mM TFA): 34.58 mM | Ethanol ([4]; P11 with 60 mM TFA): 45.60 mM | Final OD 600 ([4]; P11 with 60 mM TFA): 0.641 | MIC (minimum inhibitory concentration) ([4]; strain P11 in COM, CO substrate): 150 mM

Iron [Fe]
CO metabolism on elimination of the metal [3]: limited CO metabolism | Increase in solvent to acid ratio on elimination of the metal [3]: ~300% | CO metabolism at increased level of the metal [3]: stimulated CO metabolism | Concentration of ethanol produced [3, 7]: doubles the concentration of ethanol produced | Production of acetic acid [3, 7]: decreasing the production of acetic acid

[Mo] [Mo, molybdenum]
Acetate production on elimination of the metal [3]: increased acetate production | CO metabolism on elimination of the metal [3]: CO metabolism increased slightly | CO metabolism at increased level of the metal [3]: stimulated CO metabolism

[Cu] [Cu, copper]
Acetate production on elimination of the metal [3]: decreased acetate production | CO metabolism on elimination of the metal [3]: limited CO metabolism | CO metabolism at increased level of the metal [3]: stimulated CO metabolism

O=C(O)CF [FA, fluoroacetate]
Concentration shown to inhibit growth [5]: 50 mM | Decrease of acetate production ([4]; 30 mM FA and above): nearly ninety percent | Decrease of ethanol production ([4]; 30 mM FA and above): fifty | Decrease of growth yield ([4]; 30 mM FA and above): forty percent | Increase of ethanol to acetate ratio ([4]; 30 mM FA and above): eighty percent | Growth yield (OD) or end products relative to the P11 control ([4]; COM containing 20 mM FA): no significant differences | MIC ([4]; Clostridium ragsdalei, strain P11 in COM, CO substrate, read-out: MIC (minimum inhibitory concentration)): 100 mM (≈ 7800 µg/mL) | Ethanol production compared to the control strains [4]: increase of ethanol production | Acetate ([4]; P11 with 15 mM FA): 48.72 mM | Ethanol ([4]; P11 with 15 mM FA): 39.62 mM | Final OD 600 ([4]; P11 with 15 mM FA): 0.741

CC(=O)[O-].[Na+] [Na-Acetate]
Substrate utilization, C. ljungdahlii [6]: − | Substrate utilization, C. ragsdalei [2]: −

Starch
Substrate utilization, C. ljungdahlii [6]: − | Substrate utilization, C. ragsdalei [2]: −

O[C@H]1[C@H](O)[C@@H](O)[C@H](O)[C@@H](O)[C@H]1O [Inositol]
Substrate utilization, C. ljungdahlii [6]: − | Substrate utilization, C. ragsdalei [2]: −
